Values of other authors, collected in patent US12084601B2, “Packaging patches having disinfecting sealing layer” (AMCOR FLEXIBLES NORTH AMERICA, INC., priority 2017, dated 2024).

For `[O][Cl+][O-]` [chlorine dioxide], which “Half-life of chlorine dioxide degradation (first order kinetics)” value (ambient room light and temperature, depending on initial ClO2 concentration) is on record?
Its value is 2 to 3 h.

What about the “Time for chlorine dioxide concentration in the package to reach levels sufficiently low for safe opening” value (spontaneous degradation, prior packages) of the same molecule?
Its value is 12 to 48 h.
